Results reported in US9090701B2, “Methods of detecting oxidized calcium/calmodulin dependent protein kinase II” (University of Iowa Research Foundation, priority 2008, dated 2015).

Assays:
heart = system: heart; set-up: species or system mice; settings: mouse, in vivo
Procedure: Mice were anesthetized with ketamine (87.5 mg/kg) and xylazine (12.5 mg/kg), and a small incision was made in the skin near the spine, approximately 1 cm above the hip. Minipumps containing saline or AngII (3 mg/kg/day) were inserted and the skin was sutured closed. Other mice were given, daily injections of Iso (30 mg/kg/day, intraperitoneal) for 7 days. Animals were then sacrificed and the heart was removed, fixed, and embedded in paraffin. Transverse heart sections of 5 μm thickness were made. To confirm the identity of cardiomyocytes, heart sections were immunolabeled with alpha-actinin Ig (cardiomyocyte-specific marker). Only sections with >90% cardiomyocytes were used in experiments. (See FIG. 13.) Paraffin was removed, and TUNEL staining was performed using In Situ cell death detection kits, TMR Red (Roche). Nuclei were co-stained with DAPI. To determine percent of TUNEL positive nuclei, whole heart sections were divided into four quadrants and one image was taken at random within each quadrant. In the case of sections from post-MI mice, an average of 50% of the heart quadrants were from portions of the heart adjacent to the MI. An investigator blinded to the identity and treatment of the mice counted the number of total and TUNEL positive cells in each image. […]

oxCaMKII = assay: Western blot of blood samples for oxidized CaMKII; format: in vivo, mice; settings: WT and MsrA−/− mice, sacrificed 6 hours later, N=1 per group
Excerpt: In order to test whether the anti-oxCaMKII antiserum was suitable for detecting increased CaMKII oxidation in blood under disease conditions associated with enhanced oxidative stress, validated mouse models were utilized. […] (See FIG. 15). Western blot of blood samples and ImageJ analysis were used to quantify total and oxidized CaMKII. (See FIG. 15). […] Mice were exposed to cancer cells and treated with either saline or 2DG. Those mice that tailed to develop tumors after 60 days were labeled as controls. (See FIG. 16). Western blot of blood samples and ImageJ analysis were used to quantify total and oxidized CaMKII. (See FIG. 16). […] (See FIG. 16). Mice were divided into four groups based on the presence or absence of cancer and whether or not they received treatment. Western blot of blood samples and ImageJ analysis were used to quantify total and oxidized CaMKII. (See FIG. 18). Both cancer and varied treatments increase blood oxCaMKII in an additive manner.

cardiomyocytes = assay: Intracellular calcium concentration (Fura-2 imaging); format: cell-based, mouse; settings: compared to Iso, cardiomyocytes from WT and p47−/− mice, 100 nM
Procedure: Intracellular calcium concentration was assessed by Fura-2 fluorescence ratio imaging using a microscopic digital imaging system (Photon Technology International), as described previously (Sharma e.g., 1995). Briefly, cultured primary cardiac myocytes were loaded with the Ca^2+-specific dye Fura-2 by incubating with 1 μM Fura-2AM (Molecular Probes) at 37° C. for 30 minutes. [Ca^2+]t values over the entire cell were calculated from the 340/380-nm ratio images of Fura-2 fluorescence captured before, during and after Iso (100 nM) or AngII (100 nM) stimulation.
In order to validate the connection between AngII and ROS in this experimental model, isolated cardiomyocytes from WT and p47^−/− mice were treated with 100 nM AngII and monitored production of ROS by Imaging DHE, a fluorescent reporter for superoxide and hydrogen peroxide (FIG. 7C). Wild-type cardiomyocytes were incubated with fura-2 AM, a cell-permeant calcium indicator to observe changes in intracellular Ca^2+ ([Ca^2+]i).

angiotensin II (DRVYIHPF; Angiotensin-2; UniProt P01019 25-32, looked up) [AngII, oxidant stimulating agent in cardiac tissue]
TUNEL staining of hearts (heart): increased TUNEL staining
Oxidized CaMKII in blood (oxCaMKII): increased oxidized CaMKII
Increases in [Ca2+]i (cardiomyocytes): significantly less
